Measurements reported in publication PMC10275983 (Nature Communications, 2023).

Tests used:
[1] = system: SARS-CoV-2/human/Liverpool/REMRQ0001/2020; type: in vivo
SARS-CoV-2 = conditions: combined with ritonavir; initiated within three days of symptom onset; interim results of Phase II-III studies; cited from earlier work
Excerpt: Small molecule antivirals offer potential advantages over antibody therapeutics. […] During the early months of the pandemic, huge multinational effort was initiated to repurpose already approved antiviral or immunosuppressive drugs. One such drug was remdesivir, a nucleoside analog chain terminator that blocks replication of viral RNA[17].

## CCC(CC)COC(=O)[C@H](C)N[P@](=O)(OC[C@H]1O[C@@](C#N)(c2ccc3c(N)ncnn23)[C@H](O)[C@@H]1O)Oc1ccccc1 [remdesivir]
[1]; K18 hACE2 mice N=4, day 4 post-infection, same dosing, qPCR
  inflammatory markers (cytokine and chemokine transcripts) in lung and nasal turbinate: remained substantially elevated
[1]; mouse, in vivo
  infectious virus in the lungs (plaque assay on lung homogenate): only partially decreased viraemia
  viral RNA levels in nasal turbinates (qPCR, sub-genomic E gene): no significant impact

## CC(C)(C)[C@H](NC(=O)C(F)(F)F)C(=O)N1C[C@H]2[C@@H]([C@H]1C(=O)N[C@H](C#N)C[C@@H]1CCNC1=O)C2(C)C [nirmatrelvir]
SARS-CoV-2
  reduced hospitalization risk: 89%
